These results are taken from patent CN1063108A, “三氟甲基酮衍生物及其制备方法和用途” (Fujisawa Pharmaceutical Co Ltd, priority 1990, dated 1992).

Assay [1] relates to human sputum elastase-induced lung hemorrhage in hamsters. The assay can be described thus: Elastase-induced lung hemorrhage (hemoglobin in BAL cells, OD 541 nm). It counts as in vivo, hamster. Particulars: for % inhibition of lung hemorrhage / Hemorrhage (OD541nm): 5 min before elastase; for Hemorrhage (OD541nm): BAL 3 h later; for ED50, inhibition of lung hemorrhage: intratracheal, 5 min pre-dose.

The test system of assay [2] is HSE-induced paw edema in C57BL mice. Kind of assay: Human sputum elastase-induced mouse paw edema. It counts as in vivo. Particulars: for Footpad thickness (difference right-left hind paw): 15 min before HSE 20 μg/site, measured 2 h after HSE.
Assay [3] relates to PPE-induced emphysema in Golden Syrian hamsters. The assay can be described thus: Experimentally induced (porcine pancreatic elastase) emphysema in hamsters, lung mechanics. It counts as in vivo, hamster. Particulars: for Cst (quasi-static lung compliance) / VC (vital capacity): 5 min before PPE 100 μg/site, 3 weeks later.
Where [4] appears, read: 1 μg/site intratracheal, listed as 19.
The mark [5] stands for this setting: 10 μg/site intratracheal, listed as 19.
The mark [6] stands for this setting: 100 μg/site intratracheal, listed as 19.
Setting [7] is: 1 μg/site intratracheal, listed as 13.
Setting [8] is: 10 μg/site intratracheal, listed as 13.
[9] abbreviates: 100 μg/site intratracheal, listed as 13.

Numbered stars: 1 amine (or outer) side, 2 acyl side, 3 side chain; on linkers, the order of the positions; unused ones are H or OH. Square brackets hold non-standard residues; d marks the D form. Peptide text beside a SMILES is read from it. * marks the point of attachment. ξ: configuration not given here. 4Abz = Nc1ccc(C(=O)O)cc1; CO = O=C([*:1])[*:2]; ξV = CC(C)C(N)C(=O)O; CF3 = FC(F)(F)*

With `CC(C)C(NC(=O)[C@@H]1CCCN1C(=O)[C@@H](NC(=O)c1ccc(C(=O)NCCN2CCOCC2)cc1)C(C)C)C(=O)C(F)(F)F.Cl` (stereo partly drawn) [实施例21, 3(RS)-[[4-[[2-(4-吗啉代)乙基]氨基羰基]苯基羰基]-L-缬氨酰基-L-脯氨酰基]氨基-1，1，1-三氟-4-甲基-2-氧代戊烷盐酸盐], the “% inhibition of lung hemorrhage” value in assay [1] (1 μg/site intratracheal) came out at 13.6%; in assay [1] (10 μg/site intratracheal), 66.3%; in assay [1] (100 μg/site intratracheal), 100.0%. The “Hemorrhage (OD541nm)” value in assay [1] (1 μg/site intratracheal) is 12.76±1.11 OD541nm; in assay [1] (10 μg/site intratracheal), 5.372±2.06 OD541nm; in assay [1] (100 μg/site intratracheal) it was 0.6476±0.129 OD541nm. Further, the “ED50, inhibition of lung hemorrhage” value in assay [1] was 4.5 μg/位点.

On to `CC(C)C(NC(=O)CN(C(=O)[C@@H](NC(=O)c1ccc(C(=O)NCC(=O)[O-])cc1)C(C)C)C1Cc2ccccc2C1)C(=O)C(F)(F)F.[Na+]` (stereo partly drawn) [实施例27, 3(RS)-[[4-(羧甲基氨基羰基)苯基羰基]-L-缬氨酰基-N-(2-二氢化茚基)甘氨酰基]氨基-1，1，1-三氟-4-甲基-2-氧代戊烷钠盐], for which the results for the “% inhibition of lung hemorrhage” value in assay [1] (1 μg/site intratracheal), in assay [1] (10 μg/site intratracheal) and in assay [1] (100 μg/site intratracheal) were 24.8%, 66.9% and 99.8%, respectively. For the same compound, the “Hemorrhage (OD541nm)” value is reported as 10.68±1.25 OD541nm in assay [1] (1 μg/site intratracheal), 4.878±0.917 OD541nm in assay [1] (10 μg/site intratracheal) and 0.3451±0.084 OD541nm in assay [1] (100 μg/site intratracheal). Moreover, the “ED50, inhibition of lung hemorrhage” value in assay [1] is on record as 3.7 μg/位点.

On to `CC(C)C(NC(=O)CN(C(=O)[C@@H](NC(=O)c1ccc(C(=O)NCCN2CCOCC2)cc1)C(C)C)C1Cc2ccccc2C1)C(=O)C(F)(F)F.Cl` (stereo partly drawn) [实施例29, 3(RS)-[[4-[[2-(4-吗啉代)乙基]氨基羰基]苯基羰基]-L-缬氨酰基-N-(2-二氢化茚基)甘氨酰基]氨基-1，1，1-三氟-4-甲基-2-氧代戊烷的盐酸盐], for which the “% inhibition of lung hemorrhage” value in assay [1] (1 μg/site intratracheal) was determined as 14.9%; in assay [1] (10 μg/site intratracheal) it was 43.2%; in assay [1] (100 μg/site intratracheal) it was 69.4%. The results for the “Hemorrhage (OD541nm)” value in assay [1] (1 μg/site intratracheal), in assay [1] (10 μg/site intratracheal) and in assay [1] (100 μg/site intratracheal) were 12.05±1.95 OD541nm, 8.155±1.76 OD541nm and 4.545±1.49 OD541nm, respectively. Also, the “ED50, inhibition of lung hemorrhage” value in assay [1] was determined as 17.9 μg/位点.

On to `CC(C)C(NC(=O)[C@@H]1CCCN1C(=O)[C@@H](NC(=O)c1ccc(C(=O)NCC(=O)O)cc1)C(C)C)C(=O)C(F)(F)F` (stereo partly drawn) [实施例19, 3(RS)-[[4-(羧甲基氨基羰基)苯基羰基]-L-缬氨酰基-L-脯氨酰基]氨基-1，1，1-三氟-4-甲基-2-氧代戊烷], for which the “Hemorrhage (OD541nm)” value in assay [1] (setting [4]) was 11.59±1.40 OD541nm; in assay [1] (setting [5]), 1.663±0.690 OD541nm; in assay [1] (setting [6]), 0.2141±0.020 OD541nm. Moreover, the “% inhibition of lung hemorrhage” value in assay [1] (setting [4]) is 10.8%; in assay [1] (setting [5]) it was 93.1%; in assay [1] (setting [6]) it was 105.2%. In assay [1] (listed as 19), the “ED50, inhibition of lung hemorrhage” value worked out at 2.4 μg/位点. Moreover, the “% inhibition of paw edema” value in assay [2] (1 mg/Kg s.c.) came out at 6.4%; in assay [2] (10 mg/Kg s.c.), 20.9%; in assay [2] (100 mg/Kg s.c.), 42.3%. In addition, the results for the “Footpad thickness (difference right-left hind paw)” value in assay [2] (1 mg/Kg s.c.), in assay [2] (10 mg/Kg s.c.) and in assay [2] (100 mg/Kg s.c.) were 43.8±5.67 ×10-2mm, 37.0±13.41 ×10-2mm and 27.0±4.66 ×10-2mm, respectively. For the same compound, the “Cst, % inhibition” value came out at 15% in assay [3] (1 μg/site intratracheal), 84% in assay [3] (10 μg/site intratracheal) and 100% in assay [3] (100 μg/site intratracheal). Moreover, the “VC, % inhibition” value in assay [3] (1 μg/site intratracheal) is listed as 12%; in assay [3] (10 μg/site intratracheal), 65%; in assay [3] (100 μg/site intratracheal) it was 97%. For the same compound, the “Cst (quasi-static lung compliance)” value in assay [3] (1 μg/site intratracheal) amounted to 1.39±0.05 ml/cm H2O; in assay [3] (10 μg/site intratracheal), 0.70±0.04 ml/cm H2O; in assay [3] (100 μg/site intratracheal) it was 0.53±0.02 ml/cm H2O. The “VC (vital capacity)” value in assay [3] (1 μg/site intratracheal) turned out to be 7.0 ± 0.1 mL; in assay [3] (10 μg/site intratracheal), 5.8 ± 0.1 mL; in assay [3] (100 μg/site intratracheal), 5.0 ± 0.1 mL. Also, the “Potency compared with prior-art compounds by Cst and VC (in words)” value in assay [3] (based on Cst and VC values) is listed as “效力优于先有技术化合物A和B”. Moreover, the “Effect of pretreatment on PPE-induced increase in lung mechanics (in words)” value in assay [3] (dose-related, intratracheal pretreatment) is listed as “防止了PPE诱发的肺力学增加”.

`CC(C)C(NC(=O)[C@@H]1CCCN1C(=O)[C@@H](NC(=O)Nc1ccc(C(=O)NCC(=O)O)cc1)C(C)C)C(=O)C(F)(F)F` (stereo partly drawn) [实施例23, 3(RS)-[[4-(羧甲基氨基羰基)苯基氨基羰基]-L-缬氨酰基-L-脯氨酰基]氨基-1，1，1-三氟-2-氧代-4-甲基戊烷] ({Gly-4Abz-CO}-Val-Pro-[ξV]-CF3): the “% inhibition of lung hemorrhage” value in assay [1] (1 μg/site intratracheal) was 16.0%; in assay [1] (10 μg/site intratracheal), 75.6%; in assay [1] (100 μg/site intratracheal), 102.1%. The “Hemorrhage (OD541nm)” value came out at 9.435±0.941 OD541nm in assay [1] (1 μg/site intratracheal), 3.412±1.31 OD541nm in assay [1] (10 μg/site intratracheal) and 0.7258±0.303 OD541nm in assay [1] (100 μg/site intratracheal). Also, the “ED50, inhibition of lung hemorrhage” value in assay [1] is 3.2 μg/位点.

Regarding `CC(C)C(NC(=O)[C@@H]1CCCN1C(=O)[C@@H](NC(=O)c1ccc(C(=O)NCC(=O)O)cc1)C(C)C)C(=O)C(F)(F)F` (stereo partly drawn) [实施例13, 3(RS)-[[4-(羧基甲基氨基羰基)苯基羰基]-L-缬氨酰基-L-脯氨酰基]氨基-1，1，1-三氟-4-甲基-2-氧代戊烷], the “Hemorrhage (OD541nm)” value in assay [1] (setting [7]) turned out to be 11.63±1.99 OD541nm; in assay [1] (setting [8]) it was 4.217±1.02 OD541nm; in assay [1] (setting [9]), 0.6384±0.222 OD541nm. Besides, the “% inhibition of lung hemorrhage” value is on record as 21.6% in assay [1] (setting [7]), 74.5% in assay [1] (setting [8]) and 100.0% in assay [1] (setting [9]). Moreover, the “ED50, inhibition of lung hemorrhage” value in assay [1] (listed as 13) was 3.0 μg/位点.
